From paper PMC8234143, “Synthesis and Antiviral Evaluation of Nucleoside Analogues Bearing One Pyrimidine Moiety and Two D-Ribofuranosyl Residues” (Molecules, 2021)
Where two headings read alike, the source gives them in different places.

Legend:
M-HeLa = test: Cytotoxicity assay (Cytell Cell Imaging, DAPI/propidium iodide); assay type: cell-based; settings: cytotoxic activity, human cervix epitheloid carcinoma, read-out: IC50 Cancer Cell Lines M-HeLa
PC-3 = test: as above; assay type: cell-based; settings: cytotoxic activity, human prostate adenocarcinoma, read-out: IC50 Cancer Cell Lines PC-3
WI-38 = test: as above; assay type: cell-based; settings: cytotoxic activity, normal human lung fibroblasts, read-out: IC50 Normal Cell Line WI-38
HuTu-80 = test: as above; assay type: cell-based; settings: Homo sapiens, HuTu80; cytotoxic activity, duodenal adenocarcinoma; read-out: IC50 Cancer Cell Lines HuTu-80
in vitro [1] = settings: African green monkey, CC50, Vero cells, MTT; concentration causing 50% cell death
in vitro [2] = settings: dog
Vero cells [3] = settings: for CC50: Vero cells, MTT, concentration causing 50% cell death
Coxsackie B3 virus [4] = test: Antiviral (cytoprotection, MTT) assay against Coxsackie B3 virus in Vero cells; assay type: cell-based, coxsackievirus B3; settings: for IC50: 50% inhibition of virus replication, Vero cells, 48 h; for SI: CC50/IC50 ratio, Coxsackie B3 / Vero
[5] = tested on: A/Puerto Rico/8/34 (H1N1) influenza virus; test: Antiviral (cytoprotection, MTT) assay against influenza virus in MDCK cells; assay type: cell-based; settings: for SI: CC50/IC50 ratio, influenza H1N1 / MDCK; for IC50: 48 h
[6] = tested on: A/Puerto Rico/8/34 (H1N1) influenza virus; set-up: method as in PMID 32930935; settings: cited from earlier work; for IC50: 50% inhibition of virus replication, MDCK cells, earlier published compounds; for SI: CC50/IC50 ratio, influenza H1N1 / MDCK; for antiviral activity against influenza virus A H1N1 (in words): monosubstituted analogues
Vero cells [7] = settings: cited from earlier work
MDCK cells = settings: earlier published compounds; cited from earlier work
Coxsackie B3 virus [8] = tested on: Coxsackie B3 virus; set-up: method as in PMID 32930935; settings: cited from earlier work; for IC50: 50% inhibition of virus replication, Vero cells; for SI: CC50/IC50 ratio, Coxsackie B3 / Vero
[9] = Influenza A virus, H1N1, MDCK, 50% inhibition of virus replication, MDCK cells, read-out: IC50

Structure (SMILES) | IC50 (M-HeLa) [µM] | IC50 (PC-3) [µM] | IC50 (WI-38) [µM] | IC50 (HuTu-80) [µM] | CC50 (in vitro [1]) [µM] | CC50 (in vitro [2]) [µM] | SI (Coxsackie B3 virus [4]) | IC50 (Coxsackie B3 virus [4]; Enterovirus B, B3, Vero) [µM] | SI [5] | IC50 [5, 9] [µM] | IC50 [6] [µM] | SI [6] | CC50 (Vero cells [7]) [µM] | CC50 (MDCK cells) [µM] | IC50 (Coxsackie B3 virus [8]) [µM] | SI (Coxsackie B3 virus [8]) | other results
O=c1[nH]cc(F)c(=O)[nH]1 [5-Fluorouracil, reference compound] | 62 ± 4.9 | 10.3 ± 0.8 | 82.5 ± 6.6 | 65.2 ± 5.5 | – | – | – | – | – | – | – | – | – | – | – | – | –
CC(=O)OCC1OC(n2cc(CCCCn3c(C)cc(=O)n(CCCCc4cn(C5OC(COC(C)=O)C(OC(C)=O)C5OC(C)=O)nn4)c3=O)nn2)C(OC(C)=O)C1OC(C)=O (centres unmarked) [Compound 2f] | 88.1 ± 7.4 | > 100 | > 100 | > 100 | 18 | > 338 | 1 | 12.4 | 4 | – | – | – | – | – | – | – | CC50 (Vero cells [3]): 17.7 ± 0.6 µM; IC50 (Coxsackie B3 virus [4]): > 12.4 µM; IC50 ([5]; Influenza A virus, H1N1, MDCK): 96.3 ± 12.4 µM; antiviral activity against influenza virus A H1N1 (in words) ([5]; MDCK cells): inactive
Cc1cc(=O)n(CCCCc2cn(C3OC(CO)C(O)C3O)nn2)c(=O)n1CCCCc1cn(C2OC(CO)C(O)C2O)nn1 (centres unmarked) [Compound 2i] | 100 ± 8.5 | > 100 | > 100 | > 100 | > 471 | > 471 | 1 | > 471 | 8 | 57.5 ± 7.1 | – | – | – | – | – | – | cytotoxicity against the Vero cell line (in words) (Vero cells [3]): not cytotoxic
Cc1cc(=O)[nH]c(=O)n1Cc1cn([C@@H]2O[C@H](CO)[C@@H](O)[C@H]2O)nn1 [Compound 2j] | – | – | – | – | – | – | – | – | – | – | > 885 | 1 | > 1180 | > 885 | > 1180 | 1 ^4 | antiviral activity against influenza virus A H1N1 (in words) [6]: did not demonstrate antiviral activity
Cc1cc(=O)[nH]c(=O)n1CCCc1cn([C@@H]2O[C@H](CO)[C@@H](O)[C@H]2O)nn1 [Compound 2k] | – | – | – | – | – | – | – | – | – | – | 43 ± 5 | 6 ^4 | > 1090 | – | > 1090 | 1 ^4,3 | –
O=c1[nH]c(=O)n(CCCc2cn([C@@H]3O[C@H](CO)[C@@H](O)[C@H]3O)nn2)c2ccccc12 [Compound 4k] | – | – | – | – | – | – | – | – | – | – | 212 ± 25 | 4 ^4 | 101 ± 8 | > 744 | > 82 | 1 ^4,3 | antiviral activity against influenza virus A H1N1 (in words) [6]: did not demonstrate antiviral activity
O=c1[nH]c(=O)n(CCCCc2cn([C@@H]3O[C@H](CO)[C@@H](O)[C@H]3O)nn2)c2ccccc12 [Compound 4m] | – | – | – | – | – | – | – | – | – | – | 30 ± 4 | 24 | – | > 719 | > 79 | 1 ^4,3 | –
CC(=O)OCC1OC(n2cc(CCCCn3c(=O)c4nc5ccccc5nc4n(CCCCc4cn(C5OC(COC(C)=O)C(OC(C)=O)C5OC(C)=O)nn4)c3=O)nn2)C(OC(C)=O)C1OC(C)=O (centres unmarked) [Compound 5f] | 71.4 ± 6.3 | 66.8 ± 5.3 | > 100 | > 100 | 18 | > 308 | 2 | 11.3 | 3 | 91.6 ± 10.8 | – | – | – | – | – | – | CC50 (Vero cells [3]): 17.8 ± 1.1 µM; IC50 (Coxsackie B3 virus [4]): > 11.3 µM; antiviral activity against influenza virus A H1N1 (in words) ([5]; MDCK cells): inactive
O=c1c2nc3ccccc3nc2n(CCCc2cn(C3OC(CO)C(O)C3O)nn2)c(=O)n1CCCc1cn(C2OC(CO)C(O)C2O)nn1 (centres unmarked) [Compound 5h] | – | – | – | – | > 431 | > 431 | 1 | > 431 | 4 | > 100 | – | – | – | – | – | – | IC50 ([5]; 50% inhibition of virus replication, MDCK cells, read-out: IC50): 115 ± 15.2 µM
O=c1c2nc3ccccc3nc2n(CCCCc2cn(C3OC(CO)C(O)C3O)nn2)c(=O)n1CCCCc1cn(C2OC(CO)C(O)C2O)nn1 (centres unmarked) [Compound 5i] | 71 ± 6.1 | > 100 | > 100 | > 100 | > 414 | > 414 | 1 | > 414 | 17 | 24.3 ± 3.2 | – | – | – | – | – | – | cytotoxicity against the Vero cell line (in words) (Vero cells [3]): not cytotoxic
Cc1[nH]c(=O)n(CCCc2cn(C3OC(CO)C(O)C3O)nn2)c(=O)c1CCCc1cn(C2OC(CO)C(O)C2O)nn1 (centres unmarked) [Compound 11e] | – | – | – | – | 394 ± 21.1 | > 493 | 2 | > 164 | 3 | 164 ± 19.2 | – | – | – | – | – | – | antiviral activity against influenza virus A H1N1 (in words) ([5]; MDCK cells): completely inactive
Cc1[nH]c(=O)n(CCCCc2cn(C3OC(CO)C(O)C3O)nn2)c(=O)c1CCCCc1cn(C2OC(CO)C(O)C2O)nn1 (centres unmarked) [Compound 11f] | – | – | – | – | > 471 | > 471 | 1 | > 471 | 1 | – | – | – | – | – | – | – | IC50 ([5]; Influenza A virus, H1N1, MDCK): > 471 µM; antiviral activity against influenza virus A H1N1 (in words) ([5]; MDCK cells): did not demonstrate antiviral activity
Cc1[nH]c(=O)[nH]c(=O)c1CCCc1cn([C@@H]2O[C@H](CO)[C@@H](O)[C@H]2O)nn1 [Compound 11g] | – | – | – | – | – | – | – | – | – | – | 67 ± 8 | 2 ^4 | 140 ± 10 | 104 ± 8 | – | 4 ^4 | –
Cc1[nH]c(=O)[nH]c(=O)c1CCCCc1cn([C@@H]2O[C@H](CO)[C@@H](O)[C@H]2O)nn1 [Compound 11h] | – | – | – | – | – | – | – | – | – | – | 15 ± 3 | 5 | 525 ± 31 | 79 ± 6 | > 263 | 2 ^4 | –
CC(=O)OC[C@H]1O[C@@H](n2cc(CCCCc3c(C)[nH]c(=O)[nH]c3=O)nn2)[C@H](OC(C)=O)[C@@H]1OC(C)=O [Compound 11i] | – | – | – | – | – | – | – | – | – | – | > 592 | 1 ^4 | – | > 592 | – | – | antiviral activity against influenza virus A H1N1 (in words) [6]: did not demonstrate antiviral activity
Cc1[nH]c(=O)[nH]c(=O)c1CCCCc1cn([C@@H]2O[C@H](CO)[C@@H](O)[C@H]2O)nn1 [Compound 11j] | – | – | – | – | – | – | – | – | – | – | > 787 | 1 | – | > 787 | – | – | antiviral activity against influenza virus A H1N1 (in words) [6]: did not demonstrate antiviral activity
